Reference: PubChem BioAssay AID488836 (Broad Institute, 2010)
Records with an inconclusive call do not appear. Activity calls are given as the source filed them. No rule for the calls is given here.

Assays:
[1] = tested on: C. albicans CaCi-2 growth with fluconazole, Alamar Blue, 48 h; test: PubChem AID 488836
[2] = PubChem AID 488836; details: C. albicans CaCi-2 (fluconazole-resistant clinical isolate) growth with fluconazole, Alamar Blue, 48 h

Work on `O=C(c1ccc(Cl)cc1)N1CCN(c2ccnc3cc(Cl)ccc23)CC1` yielded an AC50 [1] of 651 nM.

`COc1ccc(NC(=O)Cn2c3ccccc3c3nc4n(c(=O)c32)CCS4)cc1` gave an AC50 [1] of 4100 nM.

For `O=C(Cn1nc(C(=O)N2CCCCC2)c2ccccc21)N1CCOCC1`, the activity change, negative = inhibition ([2]; at 6 µM (top of the series)) was -5.52% (inactive).

In the case of `CCCNC(=O)Cn1nc(-c2ccccc2)c2ccccc21`, the activity change, negative = inhibition ([2]; at 6 µM (top of the series)) is reported as 12.1% (inactive).

`O=C(Cn1c2ccccc2c2nc3n(c(=O)c21)CCS3)N1CCCC1` showed an AC50 [1] of 2300 nM.

`O=C(Nc1ccc(C(F)(F)F)cc1)N1CCN(c2ccnc3cc(Cl)ccc23)CC1` showed an AC50 [1] of 1810 nM.

For `O=C(O)c1c2ccccc2nn1Cc1ccc(Cl)cc1`, the activity change, negative = inhibition ([2]; at 6 µM (top of the series)) was -8.46% (inactive).

In the case of `c1ccc(-c2n[nH]c3ccccc23)cc1`, the activity change, negative = inhibition ([2]; at 6 µM (top of the series)) is reported as 4.54% (inactive).

Molecule `O=c1c2[nH]c3ccc(F)cc3c2nc2n1CCS2` has an AC50 [1] of 4080 nM.

Molecule `CC1CCN(C(=O)Cn2c3ccccc3c3nc4n(c(=O)c32)CCS4)CC1` has an AC50 [1] of 2940 nM.

With `CCCNC(=O)Cn1nc(-c2ccccc2)c2cc(Cl)ccc21` the activity change, negative = inhibition ([2]; at 6 µM (top of the series)) was 38.1% (inactive).

For `O=C(c1ccccc1)N1CCN(c2ccnc3cc(Cl)ccc23)CC1`, the AC50 [1] was 3350 nM.

In the case of `O=C(Cn1c2ccccc2c2nc3n(c(=O)c21)CCS3)NCCc1ccc(Cl)cc1`, the activity change, negative = inhibition ([2]; at 6 µM (top of the series)) is reported as -13.4% (inactive).

In the case of `COC(=O)Cn1nc(-c2ccc(Cl)cc2)c2ccccc21`, the activity change, negative = inhibition ([2]; at 6 µM (top of the series)) is reported as -11% (inactive).

For `CCOC(=O)c1nn(Cc2ccc(Cl)cc2)c2ccccc12`, the activity change, negative = inhibition ([2]; at 6 µM (top of the series)) was -6.26% (inactive).

In the case of `COC(=O)Cn1nc(-c2ccccc2)c2ccccc21`, the AC50 [1] is reported as 1260 nM.

With `O=C(O)c1nn(Cc2ccc(Cl)cc2)c2ccccc12` the activity change, negative = inhibition ([2]; at 6 µM (top of the series)) was -11.2% (inactive).

For `O=C(c1ccc(Cl)c(Cl)c1)N1CCN(c2ccnc3cc(Cl)ccc23)CC1`, the AC50 [1] was 1020 nM.

With `O=S(=O)(c1ccc(Cl)cc1)N1CCN(c2ccnc3cc(Cl)ccc23)CC1` the activity change, negative = inhibition ([2]; at 6 µM (top of the series)) was -15.5% (inactive).

With `O=C(Cn1nc(-c2ccccc2)c2ccccc21)NCc1ccc(Cl)cc1` the activity change, negative = inhibition ([2]; at 6 µM (top of the series)) was -18.4% (inactive).

In the case of `COc1ccc(OC)c2c(C)cc(N3CCN(C(=O)c4ccc(Cl)cc4)CC3)nc12`, the activity change, negative = inhibition ([2]; at 6 µM (top of the series)) is reported as -2.61% (inactive).

In the case of `COC(=O)Cn1nc(C)c2ccccc21`, the activity change, negative = inhibition ([2]; at 6 µM (top of the series)) is reported as -0.315% (inactive).

For `COC(=O)Cn1nc(-c2ccc(C)cc2)c2ccccc21`, the AC50 [1] was 103 nM.

For `O=C(c1csc2ccccc12)N1CCN(c2ccnc3cc(Cl)ccc23)CC1`, the AC50 [1] was 1680 nM.

For `COc1ccc2c(c1)c1nc3n(c(=O)c1n2CC(=O)N1CCC(C)CC1)CCS3`, the activity change, negative = inhibition ([2]; at 0.6 µM (top of the series)) was 13.2% (inactive).

Work on `CCN(CC)C(=O)Cn1c2ccccc2c2nc3n(c(=O)c21)CCS3` yielded an AC50 [1] of 2280 nM.

Work on `O=C(c1cccs1)N1CCN(c2ccnc3cc(Cl)ccc23)CC1` yielded an AC50 [1] of 2720 nM.

In the case of `O=c1c2[nH]c3ccccc3c2nc2n1CCS2`, the activity change, negative = inhibition ([2]; at 6 µM (top of the series)) is reported as -39.9% (inactive).

For `O=C(c1ccc(Cl)cc1)N1CCN(c2cc(C(F)(F)F)nc3ccccc23)CC1`, the activity change, negative = inhibition ([2]; at 6 µM (top of the series)) was -20% (inactive).

With `O=C(Cn1nc(-c2ccccc2)c2cc(Cl)ccc21)N1CCOCC1` the activity change, negative = inhibition ([2]; at 6 µM (top of the series)) was -5.03% (inactive).

With `O=C(c1ccc(Cl)cc1)N1CCN(c2ccc(Cl)cc2)CC1` the AC50 [1] was 6130 nM.

With `COc1ccc2c(c1)c1nc3n(c(=O)c1n2CC(=O)N1CCC(Cc2ccccc2)CC1)CCS3` the activity change, negative = inhibition ([2]; at 6 µM (top of the series)) was -7.32% (inactive).

In the case of `O=C(Cn1c2ccccc2c2nc3n(c(=O)c21)CCCS3)c1ccc(F)cc1`, the activity change, negative = inhibition ([2]; at 6 µM (top of the series)) is reported as -14.2% (inactive).

In the case of `CC1CCN(C(=O)Cn2c3ccccc3c3nc4n(c(=O)c32)CCCS4)CC1`, the AC50 [1] is reported as > 6000 nM (inactive).

For `Cc1nn(S(C)(=O)=O)c2ccccc12`, the activity change, negative = inhibition ([2]; at 6 µM (top of the series)) was -21% (inactive).

In the case of `O=C(Cn1nc(-c2ccccc2)c2ccccc21)N1CCc2ccccc2C1`, the activity change, negative = inhibition ([2]; at 6 µM (top of the series)) is reported as -26.7% (inactive).

Work on `Cc1ccc(C(=O)N2CCN(c3ccnc4cc(Cl)ccc34)CC2)cc1` yielded an AC50 [1] of 2330 nM.

With `CCOC(=O)c1c2ccccc2nn1Cc1ccc(Cl)cc1` the activity change, negative = inhibition ([2]; at 6 µM (top of the series)) was -7.34% (inactive).

For `CC1CCN(C(=O)Cn2c3ccc(F)cc3c3nc4n(c(=O)c32)CCCS4)CC1`, the AC50 [1] was 3540 nM.
